ChEMBL document CHEMBL4706723, “Novel N-Heteroaryl Indazole Derivatives as LRRK2 Inhibitors for Treating Parkinson's Disease” (ACS Med Chem Lett, 2021)

Each compound was assayed against Leucine-rich repeat serine/threonine-protein kinase 2 (Homo sapiens, UniProt Q5S007, G2019S) (assay: Inhibition of recombinant human GST tagged LRRK2 G2019S mutant catalytic domain (970 to 2527 residues) expressed in baculovirus expression system using fluorescein-labeled LRRKtide as substrate preincubated for 15 mins followed by substrate addition and measured after 90 mins by TR-FRET based Lanthascreen assay).
Leucine-rich repeat serine/threonine-protein kinase 2, sequence (Q5S007 whole entry G2019S, the tested form may be a part): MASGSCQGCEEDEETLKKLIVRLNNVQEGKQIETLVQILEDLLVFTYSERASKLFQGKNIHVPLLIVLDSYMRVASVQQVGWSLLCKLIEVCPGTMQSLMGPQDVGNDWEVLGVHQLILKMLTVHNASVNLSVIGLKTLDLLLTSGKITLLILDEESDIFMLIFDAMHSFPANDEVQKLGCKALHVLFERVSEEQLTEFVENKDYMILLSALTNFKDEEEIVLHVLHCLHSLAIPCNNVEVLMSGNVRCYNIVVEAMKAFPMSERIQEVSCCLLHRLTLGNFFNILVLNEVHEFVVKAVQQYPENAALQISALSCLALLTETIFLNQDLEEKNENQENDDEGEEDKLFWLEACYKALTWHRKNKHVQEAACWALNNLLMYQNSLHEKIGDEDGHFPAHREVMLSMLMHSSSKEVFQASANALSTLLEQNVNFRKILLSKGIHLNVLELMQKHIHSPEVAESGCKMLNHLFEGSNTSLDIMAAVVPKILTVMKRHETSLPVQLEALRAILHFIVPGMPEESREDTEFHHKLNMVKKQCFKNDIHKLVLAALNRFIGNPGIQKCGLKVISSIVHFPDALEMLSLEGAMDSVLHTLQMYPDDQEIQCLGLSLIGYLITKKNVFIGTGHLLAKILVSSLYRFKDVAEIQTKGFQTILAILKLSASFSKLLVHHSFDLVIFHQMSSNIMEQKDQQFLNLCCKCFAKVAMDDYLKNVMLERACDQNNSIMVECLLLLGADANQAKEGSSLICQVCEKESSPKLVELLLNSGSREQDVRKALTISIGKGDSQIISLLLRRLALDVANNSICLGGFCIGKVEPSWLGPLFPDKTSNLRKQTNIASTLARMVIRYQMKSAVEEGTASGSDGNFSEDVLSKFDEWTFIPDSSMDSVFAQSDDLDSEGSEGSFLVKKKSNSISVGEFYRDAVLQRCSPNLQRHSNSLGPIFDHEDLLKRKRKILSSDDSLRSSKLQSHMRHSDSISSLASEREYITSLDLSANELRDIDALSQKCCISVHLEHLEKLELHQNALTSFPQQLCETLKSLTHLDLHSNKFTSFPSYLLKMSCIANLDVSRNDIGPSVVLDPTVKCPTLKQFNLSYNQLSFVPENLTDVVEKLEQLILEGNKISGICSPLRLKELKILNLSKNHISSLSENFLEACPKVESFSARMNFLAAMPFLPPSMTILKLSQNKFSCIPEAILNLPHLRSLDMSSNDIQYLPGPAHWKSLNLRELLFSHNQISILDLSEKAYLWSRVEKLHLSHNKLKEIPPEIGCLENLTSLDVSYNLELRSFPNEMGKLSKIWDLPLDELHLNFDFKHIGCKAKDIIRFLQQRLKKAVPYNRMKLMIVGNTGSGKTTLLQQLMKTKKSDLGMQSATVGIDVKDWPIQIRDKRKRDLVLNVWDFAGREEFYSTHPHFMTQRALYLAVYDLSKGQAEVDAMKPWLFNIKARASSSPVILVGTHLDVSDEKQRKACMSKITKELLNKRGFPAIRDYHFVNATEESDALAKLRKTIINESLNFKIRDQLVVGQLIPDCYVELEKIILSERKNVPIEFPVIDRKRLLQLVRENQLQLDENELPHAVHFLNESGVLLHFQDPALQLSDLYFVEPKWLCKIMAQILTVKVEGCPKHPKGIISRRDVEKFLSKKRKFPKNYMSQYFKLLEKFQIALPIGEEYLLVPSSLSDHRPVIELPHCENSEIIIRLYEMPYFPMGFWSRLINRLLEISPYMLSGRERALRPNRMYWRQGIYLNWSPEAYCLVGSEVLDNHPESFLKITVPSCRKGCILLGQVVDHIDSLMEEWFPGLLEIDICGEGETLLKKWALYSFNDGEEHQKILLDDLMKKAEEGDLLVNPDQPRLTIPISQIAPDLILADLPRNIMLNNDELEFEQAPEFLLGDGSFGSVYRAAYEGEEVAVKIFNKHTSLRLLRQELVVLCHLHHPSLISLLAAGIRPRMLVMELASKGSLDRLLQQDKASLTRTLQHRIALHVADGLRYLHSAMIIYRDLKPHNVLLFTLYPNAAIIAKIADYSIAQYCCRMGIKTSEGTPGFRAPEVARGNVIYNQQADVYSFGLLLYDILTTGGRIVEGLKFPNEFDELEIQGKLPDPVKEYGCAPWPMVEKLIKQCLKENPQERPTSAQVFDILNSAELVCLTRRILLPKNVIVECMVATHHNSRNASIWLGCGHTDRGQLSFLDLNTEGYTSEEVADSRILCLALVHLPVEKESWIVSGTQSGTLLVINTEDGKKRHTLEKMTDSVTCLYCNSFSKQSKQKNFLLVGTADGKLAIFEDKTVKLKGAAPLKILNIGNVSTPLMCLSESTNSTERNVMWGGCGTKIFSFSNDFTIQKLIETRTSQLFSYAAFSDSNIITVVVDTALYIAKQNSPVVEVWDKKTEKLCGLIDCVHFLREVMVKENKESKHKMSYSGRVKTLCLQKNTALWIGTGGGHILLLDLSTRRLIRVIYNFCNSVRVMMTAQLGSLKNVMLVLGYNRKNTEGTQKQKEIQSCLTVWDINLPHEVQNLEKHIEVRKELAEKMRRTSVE
With `CC1(N2CCC(c3cc4c(cnn4-c4cnn(C56CC(C5)C6)c4)cc3Cl)CC2)COC1` the IC50 was 0.71 nM. Compound `CC1(N2CCC(c3cc4c(cnn4-c4cnn(C56CC(C#N)(C5)C6)c4)cc3Cl)CC2)COC1` has an IC50 of less than 0.625 nM. For `Cn1cc(-n2ncc3cc(Cl)c(C4CCN(C5(C)CCOC5)CC4)cc32)cn1` (stereo not drawn), the IC50 was less than 0.625 nM.
